# Measured values taken from patent US20240058318A1, “DEGRADING PKCB1 TO TREAT CANCER” (Mayo Foundation for Medical Education and Research, priority 2020, published 2024).
# Columns and labels:
# Type in all cases: cell-based
# [1] = system: MDAMB231 cells; test: Crystal violet (CV) proliferation assay, MDAMB231; conditions: MDAMB231 (PKCß1 high, Rb positive), 2000 cells
# Protocol: (§1) Cell proliferation rates were determined using crystal violet assays. […] Cells were fixed with 25% glutaraldehyde for 10 minutes with shaking, washed 5 times with distilled water, stained with a 1% crystal violet solution (solubilized in 25% methanol) for 10 minutes, washed again 5 times and allowed to dry. De-staining was performed using […] sodium citrate in 50% ethanol followed by quantification using a 96 well spectrophotometer set at an absorbance of 550 nm.
# [2] = system: BT549 cells; test: Crystal violet (CV) proliferation assay, BT549; conditions: BT549 (PKCß1 high, Rb negative), 2000 cells
# Protocol: as §1
# [3] = system: MDAMB436 cells; test: Crystal violet (CV) proliferation assay, MDAMB436; conditions: MDAMB436 (PKCß1 low, Rb negative), 2000 cells
# Protocol: as §1
# [4] = system: Rb-proficient (MDAMB231) and Rb-deficient (BT549 and MDAMB436) TNBC cells; test: CV proliferation assay, TNBC cells (statements across lines); conditions: MDAMB231 and BT549 cells (FIG. 4A and TABLE 1)
# Protocol: (§2) Cell proliferation rates were determined using crystal violet assays. One thousand cells per well were plated in 96 well tissue culture plates and treated the following day with a bifunctional compound or control for 7 days in replicates of 8. Cells were fixed with 25% glutaraldehyde for 10 minutes with shaking, washed 5 times with distilled water, stained with a 1% crystal violet solution (solubilized in 25% methanol) for 10 minutes, washed again 5 times and allowed to dry. De-staining was performed using […] sodium citrate in 50% ethanol followed by quantification using a 96 well spectrophotometer set at an absorbance of 550 nm.
# as §2, with “using CV” for “using crystal violet”, “assays. Two” for “assays. One”, “thousand (2000) or 4000” for “thousand”, “for 6” for “for 7”, “of 6.” for “of 8.”
# [5] = molecular target: T1, PKCβ1 (Homo sapiens, UniProt P05771); test: Western blot, PKCβ1 expression in MCF7AC1 cells; conditions: 1 μM, within 72 hours, drugs replenished every 24 hours
# T1 construct: western blots showing expression of PKCβ1 in MCF7AC1 cells treated with 1 μM concentration of the ENDX-PROTACs or ENDX; endogenous in cells; host or cells: MCF7AC1 (ER+ breast cancer cells)
# Protocol: For western blotting analysis, cells were treated with vehicle (DMSO) or 1 μM of the indicated ENDX-PROTAC's or parent drug ENDX for 24, 48 and 72 hours with the drugs replenished every 24 hours. 25 μg of protein lysates were run on 10% Bis-Tris XT Criterion precast SDS-PAGE gels and transferred on to PVDF membrane. Following blocking with TB ST-5% milk, the membranes were probed with primary antibodies (1:500 — 1:2000 dilutions) for PKCβ1 (Abcam #136917), ERα (SC #8002), E2F1 (SC #251) and Actin (CS#8457) in TBST-5% BSA and secondary antibodies (1:2000 dilution) in TBST-5% milk. Membranes were developed using chemiluminescent WestPico or WestFemto detection solutions on the Li-Cor Imaging system.
# [6] = system: unfolded protein response (UPR) mRNAs; test: qRT-PCR of UPR-associated mRNAs in MDAMB231 cells; conditions: 1 μM, 0-48 hours, fold relative to DMSO
# Protocol: To evaluate the effect of PROTAC 7 (Pr-7) on expression of various proapoptotic polypeptides, triple negative MDAMB231 cells were treated with DMSO, 1 μM Pr-7, or 1 μM ENDX, and mRNA levels were assessed by qRT-PCR at 0-, 1-, 8-, 24-, and 48-hour time points.
# (§3) Triple negative breast cancer MDA-MB-231 cells were cultured in phenol-red free DMEM/F12 medium supplemented with 10% FBS and 1% AA. Cells were plated at 1×10^6 cells per 10 cm dish. The next day, the cells were treated with DMSO, 1 μM Pr-7 or 1 μM ENDX for 1, 8, 24, and 48 hours, and were then processed for RNA and RIPA protein analysis.
# In particular, total RNA from tissue samples and cell lines was extracted using the RNEASY® Plus mini kit (Qiagen; Hilden, Germany), cDNA was generated using a ISCRIPT™ cDNA synthesis kit (Bio-Rad; Hercules, CA) and qRT-PCR reactions were set up using PERFECTA® SYBR™ green fast mix reagents (Quanta BioSciences; Beverly, MA) and gene-specific primer sets (IDT; Coralville, IA). The forward and reverse primer sequences for the genes used in this analysis were obtained from the Harvard PrimerBank database. Amplification of HPRT and tubulin was used as an internal control. Relative expression between samples was calculated by the comparative Ct method.
# [7] = system: ER-stress induced UPR pathway; test: Western blot of UPR pathway proteins in MDA-MB-231 cells; conditions: 1 μM
# Protocol: as §3
# For western blotting, 30 μg of protein lysates were run on Criterion precast 10% Bis-Tris gel, transferred to PVDF membrane, incubated in TBST-5% milk for one hour followed by overnight incubation with phospho-IRE1α (Sigma SAB5700519, rabbit, 1:1000), IRE1α (CS3294, rabbit, 1:1000), phospho-eIF2α (CS3398, rabbit, 1:1000), eIF2α (CS5324, rabbit, 1:1000), CHOP (CS2895, mouse, 1:1000), PUMA (SC374223, mouse, 1:200), NOXA (CS14766, rabbit, 1:1000), E2F1 (SC251, mouse, 1:250), BCL2 (SC7382, 1:200), cleaved PARP (CS5625, rabbit, 1:1000), PARP (CS9542, rabbit, 1:1000), PKCβ1 (SC8049, mouse, 1:200), PKCδ (CS2058, rabbit, 1:1000) and Actin (Sigma A2228, mouse, 1:10,000) primary antibodies in TBST-5% BSA solution. Membranes were washed in TBS-T, incubated for one-hour in HRP-linked anti-rabbit or anti-mouse secondary antibodies in TBST-5% milk, and washed with TBS-T. Bands were developed using west-pico or west-femto chemiluminescent substrate reagents.
# T1 sequence (P05771 whole entry): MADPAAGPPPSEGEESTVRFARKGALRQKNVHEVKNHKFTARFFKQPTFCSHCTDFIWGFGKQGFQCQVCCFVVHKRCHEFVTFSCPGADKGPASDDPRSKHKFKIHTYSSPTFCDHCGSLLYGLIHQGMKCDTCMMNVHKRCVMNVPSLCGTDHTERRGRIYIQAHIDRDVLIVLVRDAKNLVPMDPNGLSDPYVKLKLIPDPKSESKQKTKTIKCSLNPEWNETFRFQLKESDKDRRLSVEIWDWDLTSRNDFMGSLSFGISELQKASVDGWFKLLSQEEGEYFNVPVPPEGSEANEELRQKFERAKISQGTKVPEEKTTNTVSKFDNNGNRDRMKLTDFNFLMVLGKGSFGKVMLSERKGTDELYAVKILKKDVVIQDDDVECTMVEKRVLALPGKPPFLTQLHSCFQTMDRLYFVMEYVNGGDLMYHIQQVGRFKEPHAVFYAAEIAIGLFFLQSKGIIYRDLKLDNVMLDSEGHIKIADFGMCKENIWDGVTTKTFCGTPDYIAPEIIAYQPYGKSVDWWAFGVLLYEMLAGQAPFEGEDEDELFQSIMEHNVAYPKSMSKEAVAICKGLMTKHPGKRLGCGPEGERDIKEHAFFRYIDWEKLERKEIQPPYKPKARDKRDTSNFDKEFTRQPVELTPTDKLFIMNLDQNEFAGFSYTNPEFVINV
compound,measurement,setting,value
CC/C(=C(\c1ccc(O)cc1)c1ccc(OCCN(C)C(=O)COCCNC(=O)Cc2ccc3c(c2)CN(C2CCC(=O)NC2=O)C3=O)cc1)c1ccccc1 (centres unmarked) [TC-Pr-007],IC50,[1],87 nM
same,IC50,[2],43 nM
same,IC50,[3],40 nM
same,induction of apoptosis,[4],induced apoptosis
same,PKCβ1 polypeptide degradation,[5],rapidly degraded PKCβ1 polypeptides
same,mRNA expression of UPR-associated genes,[6],"increased mRNA expression for CHOP, MCL-1, PUMA, NOXA, and Xbp-1"
same,E2F1 expression,[7],downregulation
same,E2F7 activation,[7],activated E2F7
same,PARP cleavage,[7],increased PARP cleavage
same,expression of anti-apoptotic protein BCL2,[7],downregulated
same,activation of ER-stress induced UPR pathway,[7]; 1-48 hours,robustly activated multiple components
